{"source": "paper PMC6264464", "about": "“Synthesis and Antifungal Activity of Novel Sulfone Derivatives Containing 1,3,4-Oxadiazole Moieties” (Molecules, 2011)", "key": {"[1]": {"tested_on": "F. oxysporum", "assay": "Mycelial growth rate / poison plate antifungal test", "type": "cell-based", "details": "Fusarium oxysporum; for inhibition at 50 µg/mL: 120 h, read-out: Inhibition (%) F. oxysporum; for EC50: read-out: EC50 (µg/mL) F. oxysporum"}, "[2]": {"tested_on": "C. mandshurica", "assay": "Mycelial growth rate / poison plate antifungal test", "type": "cell-based, Cytospora mandshurica", "details": "Cytospora; for inhibition at 50 µg/mL: 120 h, read-out: Inhibition (%) C. mandshurica; for EC50: read-out: EC50 (µg/mL) C. mandshurica"}, "[3]": {"tested_on": "R. solani", "assay": "microbe, parasite or virus in culture", "type": "cell-based", "details": "Rhizoctonia solani, read-out: EC50 (µg/mL) R. solani"}, "[4]": {"tested_on": "B. cinerea", "assay": "microbe, parasite or virus in culture", "type": "cell-based", "details": "Botrytis cinerea, read-out: EC50 (µg/mL) B. cinerea"}, "[5]": {"tested_on": "P. infestans", "assay": "microbe, parasite or virus in culture", "type": "cell-based", "details": "Phytophthora infestans, read-out: EC50 (µg/mL) P. infestans"}, "[6]": {"tested_on": "C. gloeosporioides", "assay": "microbe, parasite or virus in culture", "type": "cell-based", "details": "Colletotrichum gloeosporioides, read-out: EC50 (µg/mL) C. gloeosporioides"}, "[7]": {"tested_on": "S. sclerotiorum", "assay": "microbe, parasite or virus in culture", "type": "cell-based", "details": "Sclerotinia sclerotiorum, read-out: EC50 (µg/mL) S. sclerotiorum"}, "[8]": {"tested_on": "T. cucumeris", "assay": "microbe, parasite or virus in culture", "type": "cell-based", "details": "Thanatephorus cucumeris, read-out: EC50 (µg/mL) T. cucumeris"}, "[9]": {"details": "at 50 µg/mL, PDA, 27 ± 1 °C, 5 days"}}, "note": "Where two headings read alike, the source gives them in different places.", "data": [{"smiles": "CS(=O)(=O)c1nnc(-c2ccccc2C(F)(F)F)o1", "note": "[Compound 5a, 2-(Methylsulfonyl)-5-(2-(trifluoromethyl)phenyl)-1,3,4-oxadiazole]", "values": [{"measurement": "inhibition at 50 µg/mL", "setting": "[1]; [9]", "value": "71.1 ± 7.7", "unit": "%"}, {"measurement": "inhibition at 50 µg/mL", "setting": "[2]; [9]", "value": "68.3 ± 9.3", "unit": "%"}, {"measurement": "melting point", "value": "102 to 104", "unit": "°C"}]}, {"smiles": "Cc1ccccc1-c1nnc(S(C)(=O)=O)o1", "note": "[Compound 5h, 2-(Methylsulfonyl)-5-(2-methylphenyl)-1,3,4-oxadiazole]", "values": [{"measurement": "inhibition at 50 µg/mL", "setting": "[1]; [9]", "value": "74.6 ± 8.5", "unit": "%"}, {"measurement": "inhibition at 50 µg/mL", "setting": "[2]; [9]", "value": "> 90", "unit": "%"}, {"measurement": "melting point", "value": "117 to 119", "unit": "°C"}]}, {"smiles": "CS(=O)(=O)c1nnc(-c2ccc(F)c(F)c2F)o1", "note": "[Compound 5b, 2-(Methylsulfonyl)-5-(2,3,4-trifluorophenyl)-1,3,4-oxadiazole]", "values": [{"measurement": "inhibition at 50 µg/mL", "setting": "[1]; [9]", "value": "97.5 ± 3.3", "unit": "%"}, {"measurement": "inhibition at 50 µg/mL", "setting": "[2]; [9]", "value": "89.7 ± 3.1", "unit": "%"}, {"measurement": "melting point", "value": "114 to 115", "unit": "°C"}]}, {"smiles": "CS(=O)(=O)c1nnc(-c2c(F)cccc2F)o1", "note": "[Compound 5e, 2-(Methylsulfonyl)-5-(2,6-difluorophenyl)-1,3,4-oxadiazole]", "values": [{"measurement": "inhibition at 50 µg/mL", "setting": "[1]; [9]", "value": "98.8 ± 8", "unit": "%"}, {"measurement": "EC50", "setting": "[1]", "value": "65.8 ± 7.04", "unit": "µg/mL"}, {"measurement": "inhibition at 50 µg/mL", "setting": "[2]; [9]", "value": "> 90", "unit": "%"}, {"measurement": "EC50", "setting": "[2]", "value": "38.3 ± 3.21", "unit": "µg/mL"}, {"measurement": "EC50", "setting": "[3]", "value": "21.2 ± 4.12", "unit": "µg/mL"}, {"measurement": "EC50", "setting": "[4]", "value": "8.25 ± 0.85", "unit": "µg/mL"}, {"measurement": "EC50", "setting": "[5]", "value": "59.5 ± 16.8", "unit": "µg/mL"}, {"measurement": "EC50", "setting": "[6]", "value": "26.1 ± 7.32", "unit": "µg/mL"}, {"measurement": "EC50", "setting": "[7]", "value": "15 ± 6.83", "unit": "µg/mL"}, {"measurement": "EC50", "setting": "[8]", "value": "23.4 ± 4.76", "unit": "µg/mL"}, {"measurement": "melting point", "value": "131 to 132", "unit": "°C"}]}, {"smiles": "CS(=O)(=O)c1nnc(-c2c(F)cccc2Cl)o1", "note": "[Compound 5j, 2-(Methylsulfonyl)-5-(2-chloro-6-fluorophenyl)-1,3,4-oxadiazole]", "values": [{"measurement": "inhibition at 50 µg/mL", "setting": "[1]; [9]", "value": "67.1 ± 4.8", "unit": "%"}, {"measurement": "inhibition at 50 µg/mL", "setting": "[2]; [9]", "value": "64 ± 2.6", "unit": "%"}, {"measurement": "melting point", "value": "121 to 123", "unit": "°C"}]}, {"smiles": "COc1ccccc1-c1nnc(S(C)(=O)=O)o1", "note": "[Compound 5g, 2-(Methylsulfonyl)-5-(2-methoxyphenyl)-1,3,4-oxadiazole]", "values": [{"measurement": "inhibition at 50 µg/mL", "setting": "[1]; [9]", "value": "89.6 ± 4.5", "unit": "%"}, {"measurement": "inhibition at 50 µg/mL", "setting": "[2]; [9]", "value": "> 90", "unit": "%"}, {"measurement": "melting point", "value": "127 to 129", "unit": "°C"}]}, {"smiles": "Cc1cc(O)no1", "note": "[Hymexazol, reference compound]", "values": [{"measurement": "inhibition at 50 µg/mL", "setting": "[1]", "value": "58.4 ± 0.8", "unit": "%"}, {"measurement": "EC50", "setting": "[1]", "value": "27.9 ± 1.02", "unit": "µg/mL"}, {"measurement": "inhibition at 50 µg/mL", "setting": "[2]", "value": "57.3 ± 0.3", "unit": "%"}, {"measurement": "EC50", "setting": "[2]", "value": "39.3 ± 2.79", "unit": "µg/mL"}, {"measurement": "EC50", "setting": "[3]", "value": "38.6 ± 0.45", "unit": "µg/mL"}, {"measurement": "EC50", "setting": "[4]", "value": "25.2 ± 6.12", "unit": "µg/mL"}, {"measurement": "EC50", "setting": "[5]", "value": "26.5 ± 1.42", "unit": "µg/mL"}, {"measurement": "EC50", "setting": "[6]", "value": "37.6 ± 3.16", "unit": "µg/mL"}, {"measurement": "EC50", "setting": "[7]", "value": "7.76 ± 2.98", "unit": "µg/mL"}, {"measurement": "EC50", "setting": "[8]", "value": "32.2 ± 5.82", "unit": "µg/mL"}]}, {"smiles": "CS(=O)(=O)c1nnc(-c2ccccc2Br)o1", "note": "[Compound 5i, 2-(Methylsulfonyl)-5-(2-bromophenyl)-1,3,4-oxadiazole]", "values": [{"measurement": "inhibition at 50 µg/mL", "setting": "[1]; [9]", "value": "77 ± 6.6", "unit": "%"}, {"measurement": "EC50", "setting": "[1]", "value": "29.9 ± 1.31", "unit": "µg/mL"}, {"measurement": "inhibition at 50 µg/mL", "setting": "[2]; [9]", "value": "79.6 ± 7.1", "unit": "%"}, {"measurement": "EC50", "setting": "[2]", "value": "44.5 ± 3.56", "unit": "µg/mL"}, {"measurement": "EC50", "setting": "[3]", "value": "20 ± 1.28", "unit": "µg/mL"}, {"measurement": "EC50", "setting": "[4]", "value": "21 ± 2.01", "unit": "µg/mL"}, {"measurement": "EC50", "setting": "[5]", "value": "49.6 ± 9.39", "unit": "µg/mL"}, {"measurement": "EC50", "setting": "[6]", "value": "21.9 ± 2.93", "unit": "µg/mL"}, {"measurement": "EC50", "setting": "[7]", "value": "14.8 ± 1.02", "unit": "µg/mL"}, {"measurement": "EC50", "setting": "[8]", "value": "24.8 ± 4.29", "unit": "µg/mL"}, {"measurement": "melting point", "value": "134 to 135", "unit": "°C"}]}, {"smiles": "CS(=O)(=O)c1nnc(-c2ccccc2F)o1", "note": "[Compound 5d, 2-(Methylsulfonyl)-5-(2-fluorophenyl)-1,3,4-oxadiazole]", "values": [{"measurement": "inhibition at 50 µg/mL", "setting": "[1]; [9]", "value": "70.1 ± 4.9", "unit": "%"}, {"measurement": "EC50", "setting": "[1]", "value": "29.1 ± 7.82", "unit": "µg/mL"}, {"measurement": "inhibition at 50 µg/mL", "setting": "[2]; [9]", "value": "64 ± 1.3", "unit": "%"}, {"measurement": "EC50", "setting": "[2]", "value": "79.9 ± 14.8", "unit": "µg/mL"}, {"measurement": "EC50", "setting": "[3]", "value": "6.43 ± 1.34", "unit": "µg/mL"}, {"measurement": "EC50", "setting": "[4]", "value": "5.21 ± 2.05", "unit": "µg/mL"}, {"measurement": "EC50", "setting": "[5]", "value": "14.7 ± 3.23", "unit": "µg/mL"}, {"measurement": "EC50", "setting": "[6]", "value": "20.2 ± 6.65", "unit": "µg/mL"}, {"measurement": "EC50", "setting": "[7]", "value": "8.49 ± 3.51", "unit": "µg/mL"}, {"measurement": "EC50", "setting": "[8]", "value": "10 ± 5.64", "unit": "µg/mL"}, {"measurement": "melting point", "value": "97 to 99", "unit": "°C"}]}, {"smiles": "CS(=O)(=O)c1nnc(-c2c(Cl)cccc2Cl)o1", "note": "[Compound 5f, 2-(Methylsulfonyl)-5-(2,6-dichlorophenyl)-1,3,4-oxadiazole]", "values": [{"measurement": "inhibition at 50 µg/mL", "setting": "[1]; [9]", "value": "94 ± 4.1", "unit": "%"}, {"measurement": "EC50", "setting": "[1]", "value": "85.4 ± 17.9", "unit": "µg/mL"}, {"measurement": "inhibition at 50 µg/mL", "setting": "[2]; [9]", "value": "> 90", "unit": "%"}, {"measurement": "EC50", "setting": "[2]", "value": "98.2 ± 8.35", "unit": "µg/mL"}, {"measurement": "EC50", "setting": "[3]", "value": "16.2 ± 9.76", "unit": "µg/mL"}, {"measurement": "EC50", "setting": "[4]", "value": "8.03 ± 0.86", "unit": "µg/mL"}, {"measurement": "EC50", "setting": "[5]", "value": "42.9 ± 7.38", "unit": "µg/mL"}, {"measurement": "EC50", "setting": "[6]", "value": "33.1 ± 8.29", "unit": "µg/mL"}, {"measurement": "EC50", "setting": "[7]", "value": "17.2 ± 4.72", "unit": "µg/mL"}, {"measurement": "EC50", "setting": "[8]", "value": "25.2 ± 2.34", "unit": "µg/mL"}, {"measurement": "melting point", "value": "126 to 128", "unit": "°C"}]}, {"smiles": "CS(=O)(=O)c1nnc(-c2ccncc2)o1", "note": "[Compound 5c, 2-(Methylsulfonyl)-5-(pyridin-4-yl)-1,3,4-oxadiazole]", "values": [{"measurement": "inhibition at 50 µg/mL", "setting": "[1]; [9]", "value": "72.6 ± 6.4", "unit": "%"}, {"measurement": "inhibition at 50 µg/mL", "setting": "[2]; [9]", "value": "78.2 ± 4.7", "unit": "%"}, {"measurement": "melting point", "value": "134 to 136", "unit": "°C"}]}]}
